The values below come from patent publication EP2401611B1, “IMPROVED METHODS FOR IDENTIFICATION” (Cambridge Enterprise Limited, priority 2009, dated 2010).

Like-named read-outs stand apart in the source and are kept apart here.

One experiment has as its system THP-1 cells. The experiment can be described thus: MCP-1 induced THP-1 cell migration (Transwell) assay. Format: cell-based, human. The conditions noted are these: for "Classical" : "BSCI" potency ratio Human: Table 3, THP-1 migration ED50 versus Panc-2H4 insulin suppression ED50. As to the method: Leukocyte migration was measured using the 96-well format micro Transwell^RTM assay system from Neuroprobe (Gaithersburg, MD, USA). In principle, this assay consists of two chambers separated by a porous membrane. The chemoattractant is placed in the lower compartment and the cells are placed in the upper compartment. After incubation for a period at 37°C the cells move towards the chemoattractant, and the number of cells in the lower compartment is proportional to the chemoattractant activity (relative to a series of controls).
The method was performed essentially as previously described (Reckless & Grainger (1999) Biochem. J. 340:803-11).
First, the cell suspension to be placed in the upper compartment was prepared. The THP-1 cells were pelleted by centrifugation (770 x g; 4 mins) and washed with Geys Balanced Salt Solution with 1mg/ml BSA (GBSS + BSA). This wash was then repeated, and the cells re-pelleted before being resuspended in a small volume of GBSS + BSA for counting, for example using a standard haemocytometer.
The volume of GBSS + BSA was then adjusted depending on the number of cells present so that the cells were at final density of 4.45 x 10^6 cells per ml of GBSS + BSA. This ensured that there were 100,000 THP-1 cells in each 25µl of the solution to be placed in the upper chamber of the plate.
The suspension of THP-1 cells at 4.45 x 10^6 cells/ml was divided into three pots. To one pot the BSCI was added at an appropriate final concentration, in an appropriate vehicle (for example (S)- 3-(2',2'-dimethylpropanoylamino)-tetrahydropyridin-2-one was added at 1nM from a stock solution in GBSS). To the second pot, the BSCI was added at the same concentration as in the first pot, but additionally the sstr2 antagonist was also added (for example BIM 23454 [Tulipano et al. (2002) 143:1218-24] or BIM 23627 were added at 66nM final concentration from a stock solution in GBSS). To the third pot, GBSS + BSA plus vehicle as appropriate was added so that the volumes in three pots are equal, acting as a control.
Next, the chemoattractant solution to be placed in the lower compartment was prepared. […]. Note that, as recommended by Frow et al (Med. Res. Rev. 24:276-98) this is the concentration of MCP-1 which induces maximal migration in this system. This solution was divided into three pots, as for the cell suspension. To one pot, the BSCI was added to the same final concentration as was added to the cell suspension, in the second pot the BSCI and the sstr2 antagonist were both added at the same concentration as previously added to the cell suspension, while to the remaining pot GBSS + BSA plus vehicle as appropriate was added so that the volumes in the three pots were equal. Note that the volume of liquid that needs to be added to make the addition of the BSCI and the sstr2 antagonist compounds needs to be taken into account, when establishing the final concentration of MCP-1 in the solution for the lower compartment and the final concentration of cells in the upper compartment.
Once the chemoattractant solutions for the lower wells and cell solutions for the upper chambers were prepared, the migration chamber was assembled. 29 µl of the appropriate chemoattractant solution was placed into the lower well of the chamber. Assays were performed with at least triplicate determinations of each condition. Once all the lower chambers were filled, the porous membrane was applied to the chamber in accordance with the manufacturer's instructions. Finally, 25 µl of the appropriate cell solution was applied to each upper chamber. A plastic lid was placed over the entire apparatus to prevent evaporation.
The assembled chamber was incubated at 37 °C, 5% CO2, for 2 hours. A suspension of cells in GBSS + BSA was also incubated under identical conditions in a tube: these cells were used to construct a standard curve for determining the number of cells that migrated to the lower chamber under each condition. […]

The test system of another experiment is Panc-2H4. The experiment can be described thus: Human Panc-2H4 insulin suppression assay. Format: cell-based. The text has this:
(§1) Two different assays for "classical" sstr2 functions were adopted: (1) cultured foetal rat pituitary cells secreted growth hormone which is inhibited by sstr2 agonists in a dose-dependent fashion and (2) selected glucose-sensitive sub-clones of the human Panc-1 cell line secrete insulin which is inhibited by sstr2 agonists in a dose-dependent fashion.
Glucose-sensitive sub-clones of the human Panc-1, a cell line derived from a pleiomorphic epithelioid carcinoma of the exocrine pancreas, were obtained essentially as described by Hamil et al. (2008) Biomed. Sci. Instrum. 44:441-6. Briefly, Panc-1 cells were subcultured in 24 well plates, and the medium was supplemented with an additional 5% glucose. […] The resulting sub-lines were then tested for glucose sensitivity by preparing wells of a 96-well plate (5 x 10^4 cells per well) which were then exposed to cultured medium containing a range of glucose concentrations (low glucose DMEM, DMEM, DMEM + 1% glucose, DMEM ± 2.5% glucose and DMEM + 5% glucose). After 24hrs incubation, the conditioned medium was collected and assayed for insulin secretion by ELISA (Linco; cat# EZHI-14K) in accordance with the manufacturer's instructions. […] Further 96 well plates were prepared using Panc-2H4 (5 x 10^4 cells per well) in DMEM. After 24hrs, the medium was switched to DMEM + 5% glucose containing various test agents at various concentrations (triplicate wells per condition). After a further 24hrs, the conditioned medium was harvested and the concentration of insulin was determined by ELISA as described above.
(§2) Results were reported as the mean ± SD, expressed as the fold change from cells in the presence of vehicle only.

Another experiment addresses sstr2 (Homo sapiens, UniProt P30874). In words: [3H]-BN83250 equilibrium binding to THP-1 cells.
In experiment [1] the test system is rat peripheral blood leukocytes. In words: Rat chemokine-induced PBMC migration assay. The class given is cell-based.
Another experiment concerns fetal rat pituicytes. In words: Rat pituicyte GH suppression assay. The class given is cell-based. The following applies: for EC50: Table 3, read-out: Rat pituicyte GH suppression assay ED50.
Excerpt: as §1
Methods: Cultures of fetal rat pituicytes were established exactly as previously described (Murray et al. (2004) J. Clin. Endocrinol. Metab. 89:3027-32) by enzymatic dispersion. After 48hrs in low glucose DMEM plus 10% FCS, cells in 48 well plates (5 x 10^4 cells per well) were washed for 4hrs in serum-free DMEM and then incubated with test agents at various concentrations for a further 24hrs in serum-free DMEM. At the end of this period, the conditioned medium was harvested, any cell debris removed by centrifugation and assayed for GH using a commercially available ELISA (Linco; cat# EZRMGH-45K) in accordance with the manufacturer's instructions.
as §2

For experiment [2], the target named is type 2 somatostatin receptor (sstr2), human (human) (UniProt P30874). In words: cell-based or functional assay.
The mark [3] stands for this setting: Table 4, 0.01nM to 1,000nM in DMSO vehicle, read-out: Chemokine-induced THP-1 cell migration assay ("BSCI" target) ED50.
The mark [4] stands for this setting: Table 4, 0.01nM to 1,000nM in DMSO vehicle, read-out: Panc-2H4 insulin suppression assay ("classical" target) ED50.
Where [5] appears, read: Table 4, THP-1 migration ED50 versus insulin suppression ED50.
Where [6] appears, read: Table 3, percentage suppression compared to vehicle.

sstr2, sequence (P30874 whole entry): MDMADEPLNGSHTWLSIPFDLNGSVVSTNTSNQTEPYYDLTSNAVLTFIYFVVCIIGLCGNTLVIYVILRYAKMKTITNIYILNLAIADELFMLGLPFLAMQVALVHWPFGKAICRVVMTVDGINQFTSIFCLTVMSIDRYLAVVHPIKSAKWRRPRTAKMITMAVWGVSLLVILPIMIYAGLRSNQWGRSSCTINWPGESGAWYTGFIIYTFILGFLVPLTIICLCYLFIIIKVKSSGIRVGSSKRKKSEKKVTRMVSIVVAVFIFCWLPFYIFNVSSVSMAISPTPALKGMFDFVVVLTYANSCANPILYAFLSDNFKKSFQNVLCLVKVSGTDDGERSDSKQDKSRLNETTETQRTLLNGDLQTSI

For the compound `CC(=O)NC(CC(N)=O)C(=O)NC(C(=O)NCC1CCCC(CN)C1)C(C)c1c[nH]c2ccccc12` (mixture of isomers) [D], the “Chemokine-induced THP-1 cell migration assay ("BSCI" target) Max Effect (%)” value in the experiment with THP-1 cells (Table 4) was less than 10%. Besides, the EC50 in the experiment on THP-1 cells (setting [3]) was more than 1000 nM; in the experiment on Panc-2H4 (setting [4]), 650 nM. For the same compound, the “Panc-2H4 insulin suppression assay ("classical" target) Max Effect (%)” value in the experiment with Panc-2H4 (Table 4) is recorded as 37%.

Regarding `CC1(C(=O)N[C@H]2CCCCNC2=O)CCCCC1` [(S)-3-(1'-methylcyclohexyl-1'-carbonylamino)-caprolactam], at sstr2, the “competition with BN83250 binding to sstr2 (in words)” value is given as “also compete with BN83250 binding to sstr2 to a similar extent”.

In the case of `O=C1NCCCC[C@@H]1NC(=O)C12CC3CC(CC(C3)C1)C2` [BN83470, (S)-3-(admantane-1'-carbonylamino)-caprolactam], the EC50 stood at 0.22 nM in experiment [1] (Rattus norvegicus, Leukocyte, Table 3, read-out: Rat chemokine-induced PBMC migration assay ED50); 270 nM in the experiment with fetal rat pituicytes (Rattus norvegicus); 0.08 nM in the experiment on THP-1 cells (Homo sapiens, THP-1, Table 3, read-out: Human chemokine-induced THP-1 migration assay ED50). Further, the Emax is 100% in experiment [1] (Rattus norvegicus, Leukocyte, Table 3, read-out: Rat chemokine-induced PBMC migration assay Max effect (%)); 56% with fetal rat pituicytes (Rattus norvegicus, Table 3, percentage suppression compared to vehicle, read-out: Rat pituicyte GH suppression assay Max effect (%)); 100% with THP-1 cells (Homo sapiens, THP-1, Table 3, read-out: Human chemokine-induced THP-1 migration assay Max effect (%)); less than 10% in the experiment with Panc-2H4 (Homo sapiens, Table 3, percentage suppression compared to vehicle, read-out: Human Panc-2H4 insulin suppression assay Max effect (%)). In experiment [1] (Table 3, rat PBMC migration ED50 versus rat pituicyte GH suppression ED50), the “"Classical" : "BSCI" potency ratio Rat” value is given as 0.0008. Also, the “"Classical" : "BSCI" potency ratio Human” value in the experiment with THP-1 cells was less than 0.00008. The “competition with BN83250 binding to sstr2 (in words)” value at sstr2 is reported as “also compete with BN83250 binding to sstr2 to a similar extent”.

Regarding `CC(c1c[nH]c2ccccc12)C(NC(=O)N1CCC(NC(N)=O)CC1)C(=O)NCC1CCCC(CN)C1` (centres unmarked) [Compound A], the EC50 with THP-1 cells (setting [3]) was more than 1000 nM.

On to `CC(c1c[nH]c2ccccc12)C(NC(=O)N1CC(=O)NC(=O)C1)C(=O)NCC1CCCC(CN)C1` (centres unmarked) [Compound B], for which the “Chemokine-induced THP-1 cell migration assay ("BSCI" target) Max Effect (%)” value with THP-1 cells (Table 4) was found to be 100%. Besides, the EC50 was 220 nM with THP-1 cells (setting [3]) and 167 nM in the experiment on Panc-2H4 (setting [4]). In addition, the RATIO with THP-1 cells (setting [5]) came out at 1.3. The “Panc-2H4 insulin suppression assay ("classical" target) Max Effect (%)” value with Panc-2H4 (Table 4) came out at 52%.

Turning to `CC(c1c[nH]c2ccccc12)C(NC(=O)NC1CCCNC1=O)C(=O)NCC1CCCC(CN)C1` (centres unmarked) [Compound C], the “Chemokine-induced THP-1 cell migration assay ("BSCI" target) Max Effect (%)” value in the experiment on THP-1 cells (Table 4) was 100%. Also, the EC50 is 2 nM in the experiment on THP-1 cells (setting [3]) and 82 nM in the experiment with Panc-2H4 (setting [4]). Further, the RATIO in the experiment on THP-1 cells (setting [5]) turned out to be 0.02. In addition, the “Panc-2H4 insulin suppression assay ("classical" target) Max Effect (%)” value in the experiment with Panc-2H4 (Table 4) came out at 56%.

For `CC(=O)NC(=O)C(NC(=O)N1CCC(n2c(=O)[nH]c3ccccc32)CC1)C(C)c1c[nH]c2ccccc12` (centres unmarked) [Compound E], the “Chemokine-induced THP-1 cell migration assay ("BSCI" target) Max Effect (%)” value with THP-1 cells (Table 4) is given as less than 10%. The EC50 in the experiment with THP-1 cells (setting [3]) and with Panc-2H4 (setting [4]) was more than 1000 nM throughout. Further, the “Panc-2H4 insulin suppression assay ("classical" target) Max Effect (%)” value in the experiment on Panc-2H4 (Table 4) is on record as less than 10%.

On to `NCC1CCCC(CNC(=O)C(Cc2ccccc2)NC(=O)N2CCC(n3c(=O)[nH]c4ccccc43)CC2)C1` (centres unmarked) [F], for which the “Chemokine-induced THP-1 cell migration assay ("BSCI" target) Max Effect (%)” value with THP-1 cells (Table 4) was less than 10%. For the same compound, the EC50 with THP-1 cells (setting [3]) and in the experiment on Panc-2H4 (setting [4]) was more than 1000 nM each time. Further, the “Panc-2H4 insulin suppression assay ("classical" target) Max Effect (%)” value with Panc-2H4 (Table 4) is reported as less than 10%.

For the compound `C[C@@H](c1c[nH]c2ccccc12)[C@@H](NC(=O)N1CCC(n2c(=O)[nH]c3ccccc32)CC1)C(=O)NC[C@@H]1CCC[C@H](CN)C1` [L-779,976], the “Rat pituicyte GH suppression assay Max effect (%)” value in the experiment on fetal rat pituicytes (setting [6]) came out at 55%. The EC50 with fetal rat pituicytes worked out at 2.9 nM; in the experiment on THP-1 cells (Table 3, read-out: Human chemokine-induced THP-1 migration assay ED50) it was 450 nM; with THP-1 cells (setting [3]), 450 nM; in the experiment on THP-1 cells (Table 5, library screening hits, read-out: Chemokine-induced THP-1 cell migration assay ("BSCI" target) ED50) it was 450 nM; in the experiment on Panc-2H4 (Table 3, read-out: Human Panc-2H4 insulin suppression assay ED50) it was 17 nM; in the experiment on Panc-2H4 (setting [4]), 17 nM. Also, in the experiment with Panc-2H4 (Table 5, library screening hits, read-out: Panc-2H4 insulin suppression assay ("classical" target) ED50), the EC50 was found to be 17 nM. Moreover, the “Human chemokine-induced THP-1 migration assay Max effect (%)” value in the experiment on THP-1 cells (Table 3) is 65%. Moreover, the “"Classical" : "BSCI" potency ratio Human” value in the experiment on THP-1 cells was found to be 27. Besides, the “Chemokine-induced THP-1 cell migration assay ("BSCI" target) Max Effect (%)” value in the experiment on THP-1 cells (Table 4) and in the experiment on THP-1 cells (Table 5) was 65% each time. For the same compound, the RATIO came out at 26.5 in the experiment on THP-1 cells (setting [5]) and 26.5 in the experiment with THP-1 cells (Table 5, THP-1 migration ED50 versus insulin suppression ED50). Further, in the experiment on Panc-2H4 (setting [6]), the “Human Panc-2H4 insulin suppression assay Max effect (%)” value was found to be 40%. Further, the “Panc-2H4 insulin suppression assay ("classical" target) Max Effect (%)” value with Panc-2H4 (Table 4) and in the experiment on Panc-2H4 (Table 5) was 40% throughout.

As to cortistatin (peptide), in experiment [2], the ED50 for inhibition of MCP-1 induced THP-1 cell migration amounted to 75 nM.

In the case of “somatostatin-28 (from UniProt P61278 89-116) (peptide)”, in experiment [2], the "Classical" : "BSCI" potency ratio, Human came out at 6; the ED50 for inhibition of MCP-1 induced THP-1 cell migration came to 0.9 nM; the Human Panc-2H4 insulin suppression assay, ED50 was 0.14 nM; the Human chemokine-induced THP-1 migration assay, ED50 is 0.9 nM.
